Data taken from patent publication US20080248470A1, “GENETIC SCREENING FOR PREDICTING ANTIDEPRESSANT DRUG RESPONSE BASED ON THE MONOAMINE TRANSPORTER GENE POLYMORPHISM COMBINATION” (SUNGKYUNKWAN UNIVERSITY Foundation for Corporate …, priority 2007, published 2008).
“And” between values parts separate entries of the source, which are not always exact repeats. Identical values can stand only once. Like-named read-outs stand apart in the source and are kept apart here.

Tests used:
[1] = plasma drug levels by HPLC-MS/MS, trough samples at end of week 4
[2] = tested on: patients with major depressive episode; settings: for change in depression score (HAM-D), FIG. 2: after 6 weeks
Protocol: In the present invention, experiments were conducted on patients other than the patient group of a prior report (reference 6). The patient subjects who participated in the experiments of the present invention were all […] and were enrolled in the Clinical Trials Program of the Samsung Medical Center Geropsychiatry and Affective Disorder Clinics (Seoul Korea). The affective disorder section of the Samsung Psychiatric Evaluation Schedule (SPES) uses the Korean version of the Structured Clinical Interview for DSM-IV Axis-I disorders (SCID-IV; 4th edition, reference 17).
In the present invention, at least one family member who is living with the patient was interviewed to supplement the patient's report of symptoms, behaviors, level of functioning, duration of episode, and recent treatments. The patient subjects who participated in the experiments of the present invention all fulfilled DSM-IV criteria for major depressive episode, the Korean version of the Structured Clinical Interview for DSM-IV Axis-I disorders (4th edition). Diagnoses were confirmed by a board certified psychiatrist on the basis of the SPES, case review notes, and other relevant data. A minimum baseline 17-item Hamilton depression scale (HAM-D) score of 15 was required.
Patient subjects, who received other psychotropic medications within 2 weeks of the study or fluoxetine within 4 weeks, were excluded. In the present invention, potential subjects were excluded for pregnancy, significant medical conditions, abnormal laboratory baseline values, unstable psychiatric features (e.g., suicidality), history of alcohol or drug dependence, seizures, head trauma with loss of consciousness, neurologic illness, or concomitant Axis I psychiatric disorder. The protocol was approved by the ethics review board of Samsung Medical Center, Seoul, Korea. Signed informed consent was obtained from all participants.
Dose titration was completed within 2 weeks.
Remission was defined as a HAM-D of less than 8 at 6 weeks (reference 19).
In the present invention, 208 patients (86% of the original participants) completed the six-week treatment trial. Sixteen patients receiving NRI treatment and 17 patients receiving SSRI treatment dropped out. […] Ten patients were excluded, either because their plasma drug concentrations were undetectable, consistent with noncompliance (N=6) or were in the range consistent with extensive drug metabolism (<200 ng/ml norfluoxetine-fluoxetine and <30 ng/ml sertraline, N=4) (reference 20). […] These 33 dropouts were excluded in data analyses.
Genomic DNA was extracted from whole blood using a Wizard Genomic Purification kit (Promega, Madison, Wis., USA). The present inventors analyzed the genotype of the 5-HTT promoter s/l polymorphism (5-HTTLPR), the genotype of the 5-HTT intron 2 s/l polymorphism, and the NET G1287A polymorphism in exon 9. For this purpose, the G1287A polymorphism in exon 9 was amplified by PCR with primers of SEQ ID NO: 1 and SEQ ID NO: 2 and digested by restriction enzyme Sau96I.

Q: For `CN[C@H]1CC[C@@H](c2ccc(Cl)c(Cl)c2)c2ccccc21` [sertraline], which “Plasma levels (mean ±SD)” value ([1]; non-responders) is on record?
A: The value was 72 ± 28 ng/mL.

Q: And the “Plasma levels (mean ±SD)” value ([1]; responders)?
A: The value was 75 ± 29 ng/mL.

Q: For `CNCCC=C1c2ccccc2CCc2ccccc21` [nortriptyline], which Response rate ([2]; 5-HTT promoter (5-HTTLPR) ss genotype, 6 weeks, listed as NRI) is on record?
A: The Response rate was 76% and 38/50(76.0) %.

Q: And the Response rate ([2]; NET A carrier + 5-HTT promoter l carrier, any intron 2 genotype)?
A: The Response rate was 22%.

Q: What about the Response rate ([2]; NET A carrier + 5-HTT promoter ss, any intron 2 genotype) of the same compound?
A: The Response rate was 63%.

Q: What about the Response rate ([2]; NET G1287A AA genotype, 6 weeks) of the same compound?
A: The Response rate was 4/6(66.7) %.

Q: And the Response rate ([2]; NET G1287A GA genotype, 6 weeks)?
A: The Response rate was 16/41(39.0) %.

Q: What about the Response rate ([2]; NET G1287A GA+AA genotypes (A allele carriers), 6 weeks) of the same compound?
A: Its Response rate is 43%.

Q: And the Response rate ([2]; NET G1287A GA+AA genotypes (A allele carriers), 6 weeks, listed as NRI)?
A: The Response rate was 42.6%.

Q: And the “change in depression score (HAM-D), FIG. 2” value ([2]; NET G1287A GA+AA genotypes)?
A: The value was 0.11.

Q: What about the “change in depression score (HAM-D), FIG. 2” value ([2]; NET G1287A GG genotype) of the same compound?
A: The value was 0.14.

Q: And the “Rate of remission (HAM-D of less than 8 at 6 weeks)” value ([2]; all patients who completed the 6-week trial)?
A: The value was 29%.

Q: What about the “Response rate (50% or greater decrease in HAM-D score at 6 weeks)” value ([2]; all patients who completed the 6-week trial, listed as NRI) of the same compound?
A: The value was 62% and 55/89 (61.8) %.

Q: What about the “expected treatment success rate when prescribed on NET G1287A examination” value ([2]; patient having the GG genotype) of the same compound?
A: The value was 83.35%.

Q: What about the “Plasma levels (mean ±SD)” value ([1]; non-responders) of the same compound?
A: Its value is 123 ± 23 ng/mL.

Q: What about the “Plasma levels (mean ±SD)” value ([1]; responders) of the same compound?
A: The value was 116 ± 21 ng/mL.
